Results taken from US11691984B2, “Compounds and methods for DCAF-mediated protein degradation” (The Scripps Research Institute, priority 2018, dated 2023).

What was measured:
FLAG-FKBP12_NLS [1] = target: T1, FLAG-FKBP12_NLS (Homo sapiens, UniProt P62942); assay: Anti-FLAG western blot of stably expressed nuclear FKBP12 (FLAG-FKBP12_NLS) in HEK293T cells; assay type: cell-based; parameters: expressed in transfected cells; host or cells: HEK293T, MDA-MB-231 and HEK293 DCAF16+/+ and DCAF16-/- clones (lentiviral pCDH-CMV-MCS-EF1-Puro); settings: HEK293T, lenalidomide-SLF positive control, 4 or 24 h
T1 sequence (P62942 whole entry): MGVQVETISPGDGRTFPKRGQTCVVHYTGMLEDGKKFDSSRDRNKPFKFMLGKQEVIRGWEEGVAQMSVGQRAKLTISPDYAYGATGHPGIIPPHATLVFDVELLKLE
Text: (§1) FLAG-tagged variants of FKBP12 (FLAG-FKBP12) or (2) FKBP12 with a C-terminal nuclear localization sequence (FLAG-FKBP12_NLS) were then stably expressed in HEK293T cells to provide cell models for evaluating cytosolic- and nuclear-localized E3-mediated degradation pathways, respectively.
(§2) FLAG-FKBP12 or FLAG-FKBP12_NLS lentivirus was generated by co-transfection of FLAG-FKBP12 or FLAG-FKBP12_NLS, pCMV-dR8.2 and pMD2.G into HEK 293T cells using FuGene 6 transfection reagent (Promega). Virus-containing medium were collected 48 h after transfection, filtered with […] filter, and used to transduce HEK293T and MDA-MB-231 cells in the presence of 10 μg/mL polybrene (Santa Cruz). 72 h after transduction, puromycin (2 μg/mL) was added to cells. HEK293T cells stably expressing FLAG-FKBP12 or FLAG-FKBP12_NLS were obtained after puromycin selection for 7 days. HEK293T cells stably expressing pCDH empty vector were generated in parallel as control.
shRNA lentivirus was generated by co-transfection of shRNA-containing vector, pCMV-dR8.2 and pMD2.G into HEK 293T cells using FuGene 6 transfection reagent (Promega). Virus-containing medium were collected 48 h after transfection and used to transiently transduce HEK293T cells stably expressing FLAG-FKBP12_NLS for 48 h. Lentiviral shRNAs targeting human DCAF16 or DTL were in pLKO.1 vector and purchased from Sigma. The sequences of shRNAs is described below.
(§3) Cells were collected and lysed in 1% NP-40 lysis buffer (25 mM Tris-HCl pH 7.4, 150 mM NaCl, 10% glycerol, 1% Nonidet P-40) with complete protease inhibitor cocktail (Roche). Cells were vortexed and sonicated for 5 pulses (40%, 4). The supernatant was collected after centrifugation at 16,000 g for 10 min at 4° C. Protein concentration was determined by DC assay (Bio-Rad). Protein lysate was heated at 95° C. for 5 min in 1× Laemmli sample buffer. Proteins were resolved by 12% or 14% Novex Tris-Glycine Mini Gels (Invitrogen) and transferred to polyvinylidene fluoride (PVDF) membrane (0.2 Bio-Rad). The membrane was blocked with 5% BSA in TBST buffer (0.1% Tween 20, 20 mM Tris-HCl 7.6, 150 mM NaCl) at room temperature for 1 h. The antibody was diluted with fresh 5% BSA in TBST buffer (1:10000 dilution for FLAG, HA and β-Actin, 1:1000 dilution for others) and incubated with membrane (1 h room temperature for FLAG, HA and β-Actin, overnight 4° C. for others). Membrane was washed three times with TBST buffer and incubated with secondary antibody (1:5000 dilution in 5% BSA in TBST) at room temperature for 1 h. Membrane was washed three times with TBST buffer. The chemiluminescence signal in membrane was recorded after developing in ECL or ECL plus western blotting detection reagent using CL-XPosure film (Thermo Scientific). Relative band intensities were quantified using ImageJ.

FLAG-FKBP12 = target: T2, FLAG-FKBP12 (Homo sapiens, UniProt P62942); assay: Anti-FLAG western blot of stably expressed cytosolic FKBP12 (FLAG-FKBP12) in HEK293T cells; assay type: cell-based; settings: lenalidomide-SLF positive control, 4 or 24 h
T2 construct: expressed in transfected cells; host or cells: HEK293T (lentiviral transduction, puromycin selection)
T2 sequence (P62942 whole entry): as above
Text: as §1
as §2, with “HEK293T cells stably expressing pCDH empty vector were generated in parallel as control.” left out
Cells were collected and lysed in 1% NP-40 lysis buffer (25 mM Tris-HCl pH 7.4, 150 mM NaCl, 10% glycerol, 1% Nonidet P-40) with complete protease inhibitor cocktail (Roche). […] Protein concentration was determined by DC assay (Bio-Rad). […] The chemiluminescence signal in membrane was recorded after developing in ECL or ECL plus western blotting detection reagent using CL-XPosure film (Thermo Scientific). Relative band intensities were quantified using ImageJ.

FLAG-FKBP12_NLS [2] = target: T1, FLAG-FKBP12_NLS; assay: Western blot of stably expressed FLAG-FKBP12_NLS in MDA-MB-231 cells; assay type: cell-based; parameters: expressed in transfected cells; host or cells: HEK293T, MDA-MB-231 and HEK293 DCAF16+/+ and DCAF16-/- clones (lentiviral pCDH-CMV-MCS-EF1-Puro); settings: 1 μM, 8 hours
Method: as §2, §3

[3] = target: T3, HA-DCAF16 and FLAG-FKBP12_NLS (Homo sapiens, UniProt P62942+Q9NXF7); assay: Co-immunoprecipitation of HA-DCAF16 with FLAG-FKBP12_NLS (ternary complex) in HEK293T cells; assay type: cell-based; settings: 5 μM, MG132 10 μM, 2 hours
T3 construct: expressed in transfected cells; host or cells: HEK293T stably expressing FLAG-FKBP12_NLS, transiently transfected with HA-DCAF16 (pRK5)
T3 sequence (Q9NXF7 whole entry): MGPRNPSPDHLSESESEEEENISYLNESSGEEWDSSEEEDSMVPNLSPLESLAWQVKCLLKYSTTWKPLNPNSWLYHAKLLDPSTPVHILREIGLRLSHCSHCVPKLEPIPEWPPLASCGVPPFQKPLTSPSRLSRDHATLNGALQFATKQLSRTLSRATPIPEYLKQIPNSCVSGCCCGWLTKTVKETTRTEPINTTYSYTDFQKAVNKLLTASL
T3 sequence (P62942 2-108): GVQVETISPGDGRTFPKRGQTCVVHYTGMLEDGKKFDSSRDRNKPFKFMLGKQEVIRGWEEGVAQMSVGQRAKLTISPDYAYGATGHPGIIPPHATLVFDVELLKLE
T3 sequence (Q16531 whole entry partner): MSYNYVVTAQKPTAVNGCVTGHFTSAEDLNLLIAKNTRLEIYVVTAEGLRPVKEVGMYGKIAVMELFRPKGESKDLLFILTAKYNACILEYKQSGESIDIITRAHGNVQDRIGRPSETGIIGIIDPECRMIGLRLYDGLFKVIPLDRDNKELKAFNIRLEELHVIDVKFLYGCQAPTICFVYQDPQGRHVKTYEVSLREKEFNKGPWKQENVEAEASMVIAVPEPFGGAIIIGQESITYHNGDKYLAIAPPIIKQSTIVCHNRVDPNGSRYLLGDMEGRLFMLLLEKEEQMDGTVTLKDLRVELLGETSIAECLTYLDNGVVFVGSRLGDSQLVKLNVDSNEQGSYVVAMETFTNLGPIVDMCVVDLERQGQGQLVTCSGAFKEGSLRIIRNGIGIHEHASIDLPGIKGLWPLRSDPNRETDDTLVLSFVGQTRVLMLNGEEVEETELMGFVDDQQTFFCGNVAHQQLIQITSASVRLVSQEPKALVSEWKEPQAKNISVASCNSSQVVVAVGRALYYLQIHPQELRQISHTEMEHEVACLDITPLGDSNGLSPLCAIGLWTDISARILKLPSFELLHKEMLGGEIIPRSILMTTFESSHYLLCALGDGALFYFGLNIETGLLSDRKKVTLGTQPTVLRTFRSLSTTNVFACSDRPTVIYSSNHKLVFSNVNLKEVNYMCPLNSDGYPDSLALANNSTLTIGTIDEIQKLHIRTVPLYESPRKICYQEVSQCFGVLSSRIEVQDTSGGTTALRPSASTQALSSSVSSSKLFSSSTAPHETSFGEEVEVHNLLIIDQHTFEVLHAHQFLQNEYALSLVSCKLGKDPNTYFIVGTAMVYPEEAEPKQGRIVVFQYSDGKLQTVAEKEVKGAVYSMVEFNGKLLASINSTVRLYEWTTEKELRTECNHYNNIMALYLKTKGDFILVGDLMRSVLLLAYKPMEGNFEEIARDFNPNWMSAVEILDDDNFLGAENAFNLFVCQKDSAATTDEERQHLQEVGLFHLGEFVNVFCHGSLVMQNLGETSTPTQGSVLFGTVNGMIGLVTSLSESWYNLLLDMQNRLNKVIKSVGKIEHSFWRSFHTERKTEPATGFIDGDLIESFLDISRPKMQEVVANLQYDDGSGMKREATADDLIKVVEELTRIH
Method: as §3
Cells were collected and lysed in 1% NP-40 lysis buffer with complete protease inhibitor cocktail on ice for 10 min, followed by 5 pulses of sonication (40%, 4). After centrifugation at 16,000 g for 10 min at 4° C., the supernatant was collected. FLAG affinity gel (20 μL slurry per sample) was incubated with protein lysates at 4° C. for 1 h and washed four times with IP washing buffer. The affinity gel was heated at 95° C. for 10 min in 2× Laemmli sample buffer, followed by western blot analysis.

DCAF16 = target: T4, DCAF16 (Homo sapiens, UniProt Q9NXF7); assay: LC-MS/MS detection of KB02-PEG0-SLF-modified tryptic peptides on DCAF16; assay type: binding; settings: HA-DCAF16-transfected HEK293T, 10 μM, 2 h
T4 construct: endogenously expressed DCAF16 in HEK293T cells; endogenous in cells; host or cells: HEK293T
T4 sequence (Q9NXF7 whole entry): as the sequence (Q9NXF7 whole entry) above
Method: HEK293T cells were transfected with HA-DCAF16 plasmid by PEI transfection reagent for 24 h and treated with DMSO or 10 μM KB02-PEG0-SLF for 2 h. Cells were collected and lysed in 1% NP-40 lysis buffer with complete protease inhibitor cocktail. HA immunoprecipitation was performed with 10 mg of total protein lysates to purify HA-DCAF16. After washing the HA resin three times with IP washing buffer and once with PBS, HA-DCAF16 protein was eluted by heating at 65° C. for 10 min with 8M urea in PBS, then reduced with 12.5 mM DTT at 65° C. for 15 min and alkylated with 25 mM iodoacetamide at 37° C. for 30 min. The protein solution was diluted with PBS to 2M urea and digested with 2 μg trypsin at 37° C. for 6 h. Tryptic peptides were acidified with 5% formic acid and loaded onto a silica capillary column (250 μm) packed with 3 cm of C18 resin (Aqua 5 Phenomenex). Peptides were analyzed on LTQ-Orbitrap Elite mass spectrometer (Thermo Scientific) coupled with a Thermo UltiMate 3000 UHPLC system. Peptides were separated on a capillary column packed with 10 cm of C18 resin (Aqua 5 Phenomenex) and a 5 μm tip. The flow rate was 0.5 μL/min. […]

Row | nuclear FKBP12 degradation (FLAG-FKBP12_NLS [1]) | cytosolic FKBP12 degradation (FLAG-FKBP12) | co-immunoprecipitation of HA-DCAF16 with FLAG-FKBP12_NLS [3] | SMILES | degradation of FLAG-FKBP12_NLS in MDA-MB-231 cells (FLAG-FKBP12_NLS [2]) | modified DCAF16 tryptic peptide identified (DCAF16)
1 | degraded | degraded |  | CCC(C)(C)C(=O)C(=O)N1CCCC[C@H]1C(=O)O[C@H](CCc1ccc(OC)c(OC)c1)c1cccc(NC(=O)CCCC(=O)NCCCCC(=O)Nc2cccc3c2CN(C2CCC(=O)NC2=O)C3=O)c1 (stereo partly drawn) [lenalidomide-SLF, (1R)-3-(3,4-dimethoxyphenyl)-1-(3-(5-((5-((2-(2,6-dioxopiperidin-3-yl)-1-oxoisoindolin-4-yl)amino)-5-oxopentyl)amino)-5-oxopentanamido)phenyl)propyl (2S)-1-(3,3-dimethyl-2-oxopentanoyl)piperidine-2-carboxylate, reference compound] |  | 
2 |  |  | co-immunoprecipitated with HA-DCAF16 | CCC(C)(C)C(=O)C(=O)N1CCCC[C@H]1C(=O)O[C@H](CCc1ccc(OC)c(OC)c1)c1cccc(NC(=O)COc2ccc3c(c2)CCCN3C(=O)CCl)c1 [KB02-PEG0-SLF, (R)-1-(3-(2-((1-(2-chloroacetyl)-1,2,3,4-tetrahydroquinolin-6-yl)oxy)acetamido)phenyl)-3-(3,4-dimethoxyphenyl)propyl (5)-1-(3,3-dimethyl-2-oxopentanoyl)piperidine-2-carboxylate] | degradation of stably expressed FLAG-FKBP12_NLS | tryptic peptide (aa 168-184) containing C173 and C177-179
